The assay deals with T1, human factor Xa (Homo sapiens, UniProt P00742).
T1 construct: purchased Enzyme Research Laboratories
Kind of assay: Factor Xa chromogenic peptide substrate assay (S-2222). It counts as biochemical.

A word on the Ki: it is a measure of affinity in units of concentration, obtained from inhibition or displacement.

T1 sequence (P00742 235-488 limits assumed): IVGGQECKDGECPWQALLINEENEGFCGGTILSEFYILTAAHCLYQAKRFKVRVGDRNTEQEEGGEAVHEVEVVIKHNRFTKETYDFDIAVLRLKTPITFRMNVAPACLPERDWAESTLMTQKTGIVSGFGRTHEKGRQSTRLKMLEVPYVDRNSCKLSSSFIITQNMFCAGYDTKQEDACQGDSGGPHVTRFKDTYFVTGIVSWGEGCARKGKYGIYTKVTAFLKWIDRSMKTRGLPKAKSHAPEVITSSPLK
T1 sequence (P00742 41-179 partner limits assumed): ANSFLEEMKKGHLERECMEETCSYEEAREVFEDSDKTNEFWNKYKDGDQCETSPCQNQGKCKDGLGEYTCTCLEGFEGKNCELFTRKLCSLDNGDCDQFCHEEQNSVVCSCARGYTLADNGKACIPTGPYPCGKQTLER
Experimental: Factor Xa activity was measured spectrophotometrically in microtiter plates in a final volume of 150 μl using the following conditions: Inhibition of human factor Xa (Enzyme Research Laboratories) was tested at an enzyme concentration of 3 nM using the chromogenic substrate S-2222 (Chromogenix AB, Mölndal, Sweden) at 200 nM. The reaction kinetics of the enzyme and the substrate were linear with both time and the enzyme concentration. The inhibitors were dissolved in DMSO and tested at various concentrations up to 100 μM. The inhibitors were diluted using HNPT buffer consisting of HEPES 100 mM, NaCl 140 mM, PEG 6000 0.1% and Tween 80 0.02%, pH 7.8. […] The velocity of the reaction was determined by the autoreader from the slope of the linear regression fit to 7 time points (1 minute). The initial velocity for each inhibitor concentration was determined by the slope of at least 4 time points in the linear phase by a linear regression fit (mOD/min^2). Apparent dissociation constants Ki were calculated according to Cheng and Prusoff [Cheng, Y. C.; Prusoff, W. H. Relationship between the inhibition constant (Ki) and the concentration of the inhibitor that causes 50 percent inhibition (IC50) of an enzyme reaction. Biochem. Pharmacol. 1973, 22, 3099-3108.] based on the IC50 and the respective Km, determined previously (Ki=IC50/(1+S/Km)). […]

Consider `CNC(=O)CN1C[C@H](C(=O)Nc2ccc(Cl)cc2)[C@@H](C(=O)Nc2ccc(-n3ccccc3=O)cc2F)C1` [Example 26, (3R,4R)-1-Methylcarbamoylmethyl-pyrrolidine-3,4-dicarboxylic acid 3-[(4-chloro-phenyl)-amide] 4-{[2-fluoro-4-(2-oxo-2H-pyridin-1-yl)-phenyl]-amide}], for which the Ki was 0.022 µM.

Values taken from patent US7550487B2, “Pyrrolidine-3,4-dicarboxamide derivatives” (Hoffmann-La Roche Inc., priority 2004, dated 2009).
